In ChEMBL document CHEMBL1139776, “Development of carboxylic acid replacements in indole-N-acetamide inhibitors of hepatitis C virus NS5B polymerase” (Bioorg Med Chem Lett, 2007):
Activity calls are given as the source filed them. No cut-off for these calls is given here.

Tests used:
[1] = Inhibition of HCV NS5B deltaC RNA polymerase; design: species or system Hepacivirus hominis
[2] = species on record: Homo sapiens; assay: Protein binding in human plasma assessed as free drug level; settings: read-out: PPB
[3] = tested on: Hepatitis C virus; assay: Antiviral activity against HCV in Huh7 cells assessed as inhibition of viral replication in presence of 10% fetal calf serum; assay type: functional, organism-based, Hepacivirus hominis; settings: Huh-7
[4] = Cytotoxicity against Huh7 cells; assay type: cell-based, Huh-7; settings: human
[5] = tested on: Hepatitis C virus; assay: Antiviral activity against HCV in Huh7 cells assessed as inhibition of viral replication in absence of serum; assay type: functional, organism-based, Hepacivirus hominis; settings: Huh-7
[6] = Oral bioavailability in rat at 3 mg/kg; assay type: ADME, organism-based; settings: in vivo
[7] = AUC in rat at 3 mg/kg, po; assay type: ADME, organism-based; design: dose 3 mg/kg, route oral; settings: plasma
[8] = Dissociation constant, pKa of the compound; assay type: physicochemical
[9] = Terminal phase half life in rat at 3 mg/kg, iv; assay type: ADME, organism-based; design: dose 3 mg/kg, route intravenous; settings: in vivo
[10] = Plasma clearance in rat at 3 mg/kg, po or 3 mg/kg, iv; assay type: ADME, organism-based

CN(C)C(=O)Cn1c(-c2ccoc2)c(C2CCCCC2)c2ccc(C(=O)NS(=O)(=O)N(C)C)cc21
IC50 [1]: 14 nM
fraction unbound [2]: 0.011
EC50 [3]: 380 nM

CN(C)C(=O)Cn1c(-c2ccccc2)c(C2CCCCC2)c2ccc(C(=O)NS(=O)(=O)N(C)C)cc21
IC50 [1]: 9 nM
fraction unbound [2]: 0.008
EC50 [3]: 710 nM

CN(C)C(=O)Cn1c(-c2ccccc2)c(C2CCCCC2)c2ccc(C(=O)NS(=O)(=O)CC(=O)O)cc21
IC50 [1]: 29 nM
EC50 [3]: 1600 nM

CN(C)C1CCN(C(=O)Cn2c(-c3cnn(C)c3)c(C3CCCCC3)c3ccc(-c4noc(=O)[nH]4)cc32)CC1
IC50 [1]: 170 nM
fraction unbound [2]: 0.094
EC50 [3]: > 50000 nM

CN(C)C(=O)Cn1c(-c2cccnc2)c(C2CCCCC2)c2ccc(-c3noc(=O)[nH]3)cc21
IC50 [1]: 780 nM
EC50 [3]: 20000 nM

CCN(CC)C1CCN(C(=O)Cn2c(-c3ccoc3)c(C3CCCCC3)c3ccc(C(=O)NS(=O)(=O)N(C)C)cc32)CC1
IC50 [1]: 4 nM
EC50 [3]: 120 nM
CC50 [4]: 50000 nM

CN(C)C1CCN(C(=O)Cn2c(-c3ccccc3)c(C3CCCCC3)c3ccc(-c4noc(=O)[nH]4)cc32)CC1
IC50 [1]: 59 nM
EC50 [3]: 1300 nM

CN(C)C(=O)Cn1c(-c2ccccc2)c(C2CCCCC2)c2ccc(C(=O)NS(=O)(=O)Cc3ccccc3)cc21
EC50 [5]: 150 nM
IC50 [1]: 31 nM
fraction unbound [2]: < 0.001
EC50 [3]: 5000 nM

CN(C)C(=O)Cn1c(-c2ccoc2)c(C2CCCCC2)c2ccc(C(=O)NS(=O)(=O)CC(=O)O)cc21
IC50 [1]: 19 nM
fraction unbound [2]: 0.01
EC50 [3]: 560 nM

CN1CCC(N(C)C(=O)Cn2c(-c3ccccc3)c(C3CCCCC3)c3ccc(-c4noc(=O)[nH]4)cc32)C1 (stereo unspecified)
IC50 [1]: 75 nM
EC50 [3]: 1600 nM

Cc1ccccc1-c1c(C2CCCCC2)c2ccc(-c3noc(=O)[nH]3)cc2n1CC(=O)N1CCC(N(C)C)CC1
IC50 [1]: 300 nM
EC50 [3]: 17000 nM

CN(C)C(=O)Cn1c(-c2ccccc2)c(C2CCCCC2)c2ccc(-c3noc(=O)[nH]3)cc21.O=C(O)C(F)(F)F
bioavailability [6]: 20%

CN(C)C(=O)Cn1c(-c2ccccc2)c(C2CCCCC2)c2ccc(-c3noc(=O)[nH]3)cc21
AUC [7]: 2 µM·h
pKa [8]: 4.8
half-life [9]: 13 h
IC50 [1]: 68 nM
fraction unbound [2]: 0.001
clearance [10]: 12 mL/min/kg
EC50 [3]: 4400 nM

COc1cccc(-c2c(C3CCCCC3)c3ccc(-c4noc(=O)[nH]4)cc3n2CC(=O)N2CCC(N(C)C)CC2)c1
IC50 [1]: 67 nM
EC50 [3]: 3700 nM

CN(C)C(=O)Cn1c(-c2ccccc2)c(C2CCCCC2)c2ccc(C(=O)O)cc21
AUC [7]: 2 µM·h
pKa [8]: 4.8
half-life [9]: 5 h
IC50 [1]: 86 nM
clearance [10]: 32 mL/min/kg
EC50 [3]: 1500 nM

CN(C)C1CCN(C(=O)Cn2c(-c3ccc(Cl)cc3)c(C3CCCCC3)c3ccc(-c4noc(=O)[nH]4)cc32)CC1
IC50 [1]: 17 nM
EC50 [3]: 1900 nM

CCS(=O)(=O)NC(=O)c1ccc2c(C3CCCCC3)c(-c3ccccc3)n(CC(=O)N(C)C)c2c1.O=C(O)C(F)(F)F
bioavailability [6]: 24%

CN(C)C1CCN(C(=O)Cn2c(-c3ccccc3F)c(C3CCCCC3)c3ccc(-c4noc(=O)[nH]4)cc32)CC1
IC50 [1]: 53 nM
EC50 [3]: 2400 nM

CCS(=O)(=O)NC(=O)c1ccc2c(C3CCCCC3)c(-c3ccc(OC)cc3)n(CC(=O)N(C)C)c2c1
IC50 [1]: 11 nM
EC50 [3]: 1500 nM

CCN(CC)CC1CN(C(=O)Cn2c(-c3ccc(OC)cc3)c(C3CCCCC3)c3ccc(C(=O)NS(=O)(=O)CC)cc32)CCO1 (stereo unspecified)
IC50 [1]: 9 nM
EC50 [3]: 340 nM
CC50 [4]: 50000 nM

CN(C)C(=O)Cn1c(-c2ccccc2)c(C2CCCCC2)c2ccc(C(=O)O)cc21.O=C(O)C(F)(F)F
bioavailability [6]: 45%

CCS(=O)(=O)NC(=O)c1ccc2c(C3CCCCC3)c(-c3ccccc3)n(CC(=O)N(C)C)c2c1
EC50 [5]: 520 nM
AUC [7]: 1 µM·h
half-life [9]: 2 h
IC50 [1]: 46 nM
clearance [10]: 51 mL/min/kg
EC50 [3]: 2100 nM

CN1CCCC(CN(C)C(=O)Cn2c(-c3ccccc3)c(C3CCCCC3)c3ccc(-c4noc(=O)[nH]4)cc32)C1 (stereo unspecified)
IC50 [1]: 47 nM
fraction unbound [2]: 0.021
EC50 [3]: 1100 nM

CN(C)C(=O)Cn1c(-c2ccccc2)c(C2CCCCC2)c2ccc(C(=O)N(C)S(=O)(=O)Cc3ccccc3)cc21
IC50 [1]: 640 nM
fraction unbound [2]: 0.001
Activity ([3]; Hepacivirus hominis): inactive

CCS(=O)(=O)NC(=O)c1ccc2c(C3CCCCC3)c(-c3ccoc3)n(CC(=O)N(C)C)c2c1
IC50 [1]: 22 nM
fraction unbound [2]: 0.008
EC50 [3]: 1500 nM

CN(C)CCS(=O)(=O)NC(=O)c1ccc2c(C3CCCCC3)c(-c3ccccc3)n(CC(=O)N(C)C)c2c1
EC50 [5]: 2000 nM
IC50 [1]: 31 nM
fraction unbound [2]: 0.019
EC50 [3]: 5400 nM

CN(C)C(=O)Cn1c(-c2ccccc2)c(C2CCCCC2)c2ccc(C(=O)NS(=O)(=O)c3ccccc3)cc21
EC50 [5]: 130 nM
IC50 [1]: 11 nM
fraction unbound [2]: 0.003
EC50 [3]: 3900 nM

CN(C)CC1CN(C(=O)Cn2c(-c3ccoc3)c(C3CCCCC3)c3ccc(-c4noc(=O)[nH]4)cc32)CCO1 (stereo unspecified)
IC50 [1]: 26 nM
EC50 [3]: 1100 nM
